Format in all cases: in vivo
One test relates to noninflamed rat paws. The test is described as follows: Paw pressure test (nociceptive threshold) in noninflamed rat paws. The procedure: (§1) Male Fischer inbred rats (Charles River Italy, Calco, Lecco, Italy) weighing about 250 g were used. Rats, under brief isoflurane anaesthesia received an intraplantar injection of Freund's complete adjuvant (FCA) (0.15 ml) into the right hind paw. This injection induced a unilateral inflammation (from 3 h until 24-48 h following injection) evidenced by increase in paw volume, hyperthermia and hyperalgesia. Hyperalgesia was assessed by an algesyometric test, using an analgesyometer (Ugo Basile, Comerio, Italy) to determine the paw pressure threshold, expressed in grams, namely the pressure required to elicit paw withdrawal, which indicates the nociceptive threshold value. 6 to 8 rats were used for each test. During these trials, animals were treated according to the “standard ethical guidelines” (NIH, 1985).
Dose/effect curves in noninflamed paws were in fact superimposable (until 120′ after oATP administration) using different concentrations of the molecule. In order to ascertain whether oATP analgesic effect was somewhat related to the activation of inflammatory cells able to produce endogenous β-endorphins, some rats were intravenously injected with fucoidin (10 mg/kg). Fucoidin in fact inhibits leukocyte diapedesis and their accumulation at the inflammation site. Pre-treatment with fucoidin was carried out in both paws, 30′ before FCA injection in one of the rat paws. Pain pressure threshold (PPT) was measured in both noninflamed and inflamed paws, before and after oATP injection (224 μm).

Test [1] deals with rat hind paw inflamed by Freund's complete adjuvant (FCA). The experiment in a line: Paw pressure test (nociceptive threshold) and inflammatory signs in rat hind paw inflamed by intraplantar Freund's complete adjuvant (FCA). As to the method:
As experimental model, a unilateral inflammation in rat hind paw, after intraplantar injection of Freund's complete adjuvant (FCA), has been used. The controlateral paw of treated animals, as well as that of untreated animals, were used as controls. Inflammation induced by FCA was evidenced, from 3 h until 24-48 h following injection, by increase in paw volume, hyperthermia and hyperalgesia. The latter was evaluated by an algesyometric test (paw pressure test) capable of evaluating the nociceptive threshold. […] Different doses of oATP always induced a significant, dose-dependent analgesic effect, lasting approximately 12-24 hours, with an effect peak already one hour after the administration.
as §1
Rat inflamed paw received, 24 hrs after FCA injection, intraplantar injection of different doses of oATP (56 to 336 μM), considering time 0 the moment of oATP injection.
The effect of the maximal oATP dose used was tested in a further set of experiments, for more prolonged times, on rat paws in which the inflammatory process had been induced 48 hrs before (table 2). […]

The test system of test [2] is ATP content in paw subcutaneous tissue. The test is described as follows: ATP content of rat paw subcutaneous tissue, luminescence method. The following applies: for ATP levels: 6 and 12 h following intraplantar oATP (35 μM), FIG. 3.
Description: ATP content was assessed in oATP treated rat paws and controlateral untreated ones. Paw subcutaneous tissues were removed from both inflamed and noninflamed paws and rapidly frozen in liquid nitrogen. The frozen tissue samples were weighed, homogenised in phosphate buffer, then treated with K2CO3 and neutralised, finally centrifuged. The supernatant was used for ATP assay, following the luminescence method. We determined in a separate group of rats the modifications in ATP content induced in the plantar tissue by the inflammatory process and/or by oATP treatment. At established times, paw subcutaneous tissues were removed and rapidly frozen in liquid nitrogen, with the aim of blocking any metabolic activity. The frozen tissue was homogenized with a polytron (Kinematica GmbH, Luzern, Switzerland) in ice-cold 6% (w/v) HClO4 to extract nucleotides. The homogenate was centrifuged and the supernatant was used for ATP determination, following the procedure previously described (Marni et al., Transplantation (1988), 46: 830-835). ATP assay was performed by luminescence method (Ferrero et al., Res Commun Chem Path Pharmac 1984; 45: 55-67). We measured ATP levels, in inflamed (by 24 h FCA treatment) and noninflamed paws treated with oATP, at 6 and 12 h following oATP administration, and in controlateral untreated paws. […] ATP content, at 6 and 12 h following intraplantar oATP (35 μM) injection in rat paws: inflamed (by 24 FCA administration) (filled bars), inflamed-oATP treated (hatched bars), noninflamed (open bars), noninflamed-oATP-treated (horizontal line bars). *p<0.005 compared with inflamed untreated paws, Wilcoxon test. Data are expressed as means±S.E.M. of 7 experiments.

Take `Nc1ncnc2c1ncn2[C@@H]1O[C@H](COP(=O)(O)OP(=O)(O)OP(=O)(O)O)[C@@H](O)[C@H]1O` [ATP, reference compound]: the nociceptive threshold in the test with noninflamed rat paws (240′ after intraplantar injection of ATP (0.9 mmoles)) is given as 25±3.0; in the test with noninflamed rat paws (before intraplantar injection of ATP (0.9 mmoles)) it was 120±3.2; in test [1] (inflamed paws, after intraplantar injection of ATP (0.9 mmoles)), 50±4.1; in test [1] (inflamed paws, before intraplantar injection of ATP (0.9 mmoles)) it was 65±4.2.

Turning to `Nc1ncnc2c1ncn2[C@@H](C=O)O[C@@H](C=O)COP(=O)(O)OP(=O)(O)OP(=O)(O)O` [oATP, adenosine-5′-triphosphate-2′,3′-dialdehyde], the “effect on nociceptive threshold” value with noninflamed rat paws (already at the lowest oATP concentration (56 μM), dose/effect curves superimposable until 120′) is reported as “effective in increasing nociceptive threshold, for a short time”. Besides, the “pain pressure threshold (PPT)” value in the test with noninflamed rat paws (fucoidin 10 mg/kg i.v. pre-treatment, oATP injection 224 μm, FIG. 1) is reported as “did not significantly change PPT values”; in test [1] (inflamed paws, fucoidin 10 mg/kg i.v. pre-treatment 30′ before FCA, oATP injection 224 μm, FIG. 1), “restored PPT levels”. For the same compound, the ATP levels result in test [2] (inflamed tissues (24 h FCA), p<0.005 vs inflamed untreated paws) was “significantly reduced”; in test [2] (noninflamed tissues) it was “did not significantly change ATP levels”. For the same compound, the “ATP content of paw homogenate” value in test [2] (oATP treated paws, untreated 1050±90, mean±S.E.M. of 7 experiments) turned out to be 320±22 nmoles/g fresh tissue. Further, the “duration of analgesic effect” value in test [1] (intraplantar injection, different doses of oATP) fell in the range of 12 to 24 h. Further, the “dose dependence of analgesic effect” value in test [1] (intraplantar oATP 56 to 336 μM) is “dose-dependent effect”. Further, the “analgesic efficacy compared with diclofenac” value in test [1] (local treatment 3 hours after FCA, oATP 336 μM vs diclofenac 15 mg, FIG. 2) is on record as “significantly higher than that of diclofenac”. Further, the “nociceptive threshold or paw pressure threshold” value amounted to 120 ± 2.1 g in test [1] (oATP 56 μM intraplantar, 24 hrs after FCA, inflamed paw, 30′); 190 ± 2.3 g in test [1] (oATP 56 μM intraplantar, 24 hrs after FCA, inflamed paw, 60′); 85 ± 2.5 g in test [1] (oATP 56 μM intraplantar, 24 hrs after FCA, inflamed paw, 90′); 75 ± 1.8 g in test [1] (oATP 56 μM intraplantar, 24 hrs after FCA, inflamed paw, 120′); 75 ± 2.6 g in test [1] (oATP 56 μM intraplantar, 24 hrs after FCA, inflamed paw, 240′); 60 ± 1.6 g in test [1] (oATP 56 μM intraplantar, 24 hrs after FCA, inflamed paw, time 0′ (untreated inflamed paw, baseline)). The “nociceptive threshold or paw pressure threshold” value in test [1] (oATP 112 μM intraplantar, 24 hrs after FCA, inflamed paw, 30′) is listed as 140 ± 3.5 g; in test [1] (oATP 112 μM intraplantar, 24 hrs after FCA, inflamed paw, 60′) it was 180 ± 4.2 g; in test [1] (oATP 112 μM intraplantar, 24 hrs after FCA, inflamed paw, 90′) it was 150 ± 3.8 g; in test [1] (oATP 112 μM intraplantar, 24 hrs after FCA, inflamed paw, 120′) it was 100 ± 3.0 g; in test [1] (oATP 112 μM intraplantar, 24 hrs after FCA, inflamed paw, 240′) it was 105 ± 4.3 g; in test [1] (oATP 112 μM intraplantar, 24 hrs after FCA, inflamed paw, time 0′ (untreated inflamed paw, baseline)), 65 ± 2.0 g. Also, the “nociceptive threshold or paw pressure threshold” value is 350 ± 54 g in test [1] (oATP 224 μM intraplantar, 24 hrs after FCA, inflamed paw, 30′); 400 ± 10.3 g in test [1] (oATP 224 μM intraplantar, 24 hrs after FCA, inflamed paw, 60′); 300 ± 11.2 g in test [1] (oATP 224 μM intraplantar, 24 hrs after FCA, inflamed paw, 90′); 185 ± 7.1 g in test [1] (oATP 224 μM intraplantar, 24 hrs after FCA, inflamed paw, 120′); 180 ± 8.9 g in test [1] (oATP 224 μM intraplantar, 24 hrs after FCA, inflamed paw, 240′); 50 ± 1.5 g in test [1] (oATP 224 μM intraplantar, 24 hrs after FCA, inflamed paw, time 0′ (untreated inflamed paw, baseline)). The “nociceptive threshold or paw pressure threshold” value in test [1] (oATP 336 μM intraplantar, 24 hrs after FCA, inflamed paw, 30′) is 300 ± 3.4 g; in test [1] (oATP 336 μM intraplantar, 24 hrs after FCA, inflamed paw, 60′, 750 = cut off), “=> 750 *1 g”; in test [1] (oATP 336 μM intraplantar, 24 hrs after FCA, inflamed paw, 90′, 750 = cut off), “=> 750 *2 g”; in test [1] (oATP 336 μM intraplantar, 24 hrs after FCA, inflamed paw, 120′) it was 600 ± 20.8 g; in test [1] (oATP 336 μM intraplantar, 24 hrs after FCA, inflamed paw, 240′) it was 550 ± 18.4 g; in test [1] (oATP 336 μM intraplantar, 24 hrs after FCA, inflamed paw, time 0′ (untreated inflamed paw, baseline)) it was 60 ± 1.9 g. The “nociceptive threshold or paw pressure threshold” value in test [1] (oATP 336 μM, inflammatory process induced 48 hrs before, 30′) is 210 ± 10.7 g; in test [1] (oATP 336 μM, inflammatory process induced 48 hrs before, 60′), 360 ± 25.8 g; in test [1] (oATP 336 μM, inflammatory process induced 48 hrs before, 90′), 395 ± 30.2 g; in test [1] (oATP 336 μM, inflammatory process induced 48 hrs before, 120′), 450 ± 38.1 g; in test [1] (oATP 336 μM, inflammatory process induced 48 hrs before, 180′) it was 550 ± 45.9 g; in test [1] (oATP 336 μM, inflammatory process induced 48 hrs before, 240′), 690 ± 56.6 g. Also, the “nociceptive threshold or paw pressure threshold” value in test [1] (oATP 336 μM, inflammatory process induced 48 hrs before, 12 hours) is given as 400 ± 29.7 g; in test [1] (oATP 336 μM, inflammatory process induced 48 hrs before, 24 hours), 210 ± 7.2 g; in test [1] (oATP 336 μM, inflammatory process induced 48 hrs before, 26 hours), 190 ± 3.3 g; in test [1] (oATP 336 μM, inflammatory process induced 48 hrs before, time 0′ (baseline)) it was 55 ± 2.0 g. Besides, the “inflammatory signs (swelling, hyperthermia)” value in test [1] (oATP treated paws compared with untreated paws) is given as “reduction of inflammatory signs”.

The record behind these values is patent US7317018B2, “Anti-inflammatory medicament” (Medestea Internazionale S.p.A., priority 2000, dated 2008).
